According to PMC5218480 (PLoS ONE, 2017):

System: MV-4-11 cells
Test: Gene expression microarray analysis (Affymetrix PrimeView) and GSEA
Type: cell-based, human
Design: RFU PODN (11730768_x_at) / Fold change /veh PODN (11730768_x_at) / RFU LINC00158 (11744669_a_at) / Fold change /veh LINC00158 (11744669_a_at) / RFU DUSP10 (11751237_a_at) / Fold change /veh DUSP10 (11751237_a_at) / RFU ID3 (11757404_x_at) / Fold change /veh ID3 (11757404_x_at) / RFU PLEKHG5 (11737974_s_at) / Fold change /veh PLEKHG5 (11737974_s_at) / RFU LRRC4B (11730491_at) / Fold change /veh LRRC4B (11730491_at) / RFU GIMAP4 (11747438_a_at) / Fold change /veh GIMAP4 (11747438_a_at) / RFU KRT8 (11758183_x_at) / Fold change /veh KRT8 (11758183_x_at) / RFU CNN1 (11734310_a_at) / Fold change /veh CNN1 (11734310_a_at) / RFU VPS37D (11726825_at) / Fold change /veh VPS37D (11726825_at) / RFU C10orf10 (11716522_x_at) / Fold change /veh C10orf10 (11716522_x_at) / RFU KIR2DL2 /// KIR2DL4 /// KIR2DL5A /// KIR2DL5B /// KIR2DS1 /// KIR2DS2 /// KIR2DS3 /// KIR2DS4 /// KIR3DL3 /// KIR3DL3 /// KIR3DS1 (11738374_at) / Fold change /veh KIR2DL2 /// KIR2DL4 /// KIR2DL5A /// KIR2DL5B /// KIR2DS1 /// KIR2DS2 /// KIR2DS3 /// KIR2DS4 /// KIR3DL3 /// KIR3DL3 /// KIR3DS1 (11738374_at) / RFU C1QL1 (11718748_at) / Fold change /veh C1QL1 (11718748_at) / RFU TMPRSS4 (11747572_a_at) / Fold change /veh TMPRSS4 (11747572_a_at) / RFU HAMP (11756126_x_at) / Fold change /veh HAMP (11756126_x_at) / RFU RNFT2 (11725882_a_at) / Fold change /veh RNFT2 (11725882_a_at) / RFU NR4A2 (11747474_a_at) / Fold change /veh NR4A2 (11747474_a_at) / RFU ABCC12 (11746883_a_at) / Fold change /veh ABCC12 (11746883_a_at) / RFU TMEM136 (11760407_x_at) / Fold change /veh TMEM136 (11760407_x_at) / RFU CLDN22 /// WWC2 (11732394_at) / Fold change /veh CLDN22 /// WWC2 (11732394_at) / RFU HLA-DPB1 (11760878_x_at) / Fold change /veh HLA-DPB1 (11760878_x_at) / RFU SPINT1 (11716480_a_at) / Fold change /veh SPINT1 (11716480_a_at) / RFU GAP43 (11754022_s_at) / Fold change /veh GAP43 (11754022_s_at) / RFU A4GNT (11735810_at) / Fold change /veh A4GNT (11735810_at) / RFU PRB3 (11715151_x_at) / Fold change /veh PRB3 (11715151_x_at) / RFU TUBB4B (11761932_at) / Fold change /veh TUBB4B (11761932_at) / RFU CAPN14 (11732068_a_at) / Fold change /veh CAPN14 (11732068_a_at) / RFU TMCC2 (11721928_a_at) / Fold change /veh TMCC2 (11721928_a_at) / RFU IRGQ (11745062_a_at) / Fold change /veh IRGQ (11745062_a_at) / RFU FAM174B (11720279_a_at) / Fold change /veh FAM174B (11720279_a_at) / RFU TMPRSS4 (11748680_a_at) / Fold change /veh TMPRSS4 (11748680_a_at) / RFU FAM212B (11763350_a_at) / Fold change /veh FAM212B (11763350_a_at) / RFU PLEKHG5 (11743358_a_at) / Fold change /veh PLEKHG5 (11743358_a_at) / RFU ZSCAN30 (11745921_a_at) / Fold change /veh ZSCAN30 (11745921_a_at) / RFU CMKLR1 (11741424_a_at) / Fold change /veh CMKLR1 (11741424_a_at) / RFU LOC101060620 /// MAPK8IP1 (11723275_at) / Fold change /veh LOC101060620 /// MAPK8IP1 (11723275_at) / RFU SPTSSB (11747773_x_at) / Fold change /veh SPTSSB (11747773_x_at) / RFU PRSS12 (11739890_at) / Fold change /veh PRSS12 (11739890_at) / RFU BIN1 (11741810_x_at) / Fold change /veh BIN1 (11741810_x_at) / RFU WNT11 (11732464_a_at) / Fold change /veh WNT11 (11732464_a_at) / RFU C10orf10 (11716521_a_at) / Fold change /veh C10orf10 (11716521_a_at) / RFU C5orf56 (11738089_at) / Fold change /veh C5orf56 (11738089_at) / RFU CYB561 (11721691_x_at) / Fold change /veh CYB561 (11721691_x_at) / RFU ANKRD19P (11752326_a_at) / Fold change /veh ANKRD19P (11752326_a_at) / RFU OR2T12 /// OR2T33 /// OR2T8 (11738714_s_at) / Fold change /veh OR2T12 /// OR2T33 /// OR2T8 (11738714_s_at) / RFU VCAN (11748164_a_at) / Fold change /veh VCAN (11748164_a_at) / RFU JSRP1 (11732532_at) / Fold change /veh JSRP1 (11732532_at) / RFU KRTAP10-11 (11738290_x_at) / Fold change /veh KRTAP10-11 (11738290_x_at) / RFU MYO3A (11730013_a_at) / Fold change /veh MYO3A (11730013_a_at) / RFU EBF3 (11725865_a_at) / Fold change /veh EBF3 (11725865_a_at) / RFU CAMK2N1 (11719241_x_at) / Fold change /veh CAMK2N1 (11719241_x_at) / RFU C5orf56 (11738088_a_at) / Fold change /veh C5orf56 (11738088_a_at) / RFU OLFML3 (11715873_a_at) / Fold change /veh OLFML3 (11715873_a_at) / RFU LOC100653217 /// NTM (11731650_a_at) / Fold change /veh LOC100653217 /// NTM (11731650_a_at) / RFU MAPK11 (11762145_a_at) / Fold change /veh MAPK11 (11762145_a_at) / RFU FIZ1 (11724087_x_at) / Fold change /veh FIZ1 (11724087_x_at) / RFU OASL (11726364_x_at) / Fold change /veh OASL (11726364_x_at) / RFU SOX15 (11748057_x_at) / Fold change /veh SOX15 (11748057_x_at) / RFU CD79A (11719716_a_at) / Fold change /veh CD79A (11719716_a_at) / RFU HIST1H1D (11736915_at) / Fold change /veh HIST1H1D (11736915_at) / RFU CASKIN2 (11723855_a_at) / Fold change /veh CASKIN2 (11723855_a_at) / RFU LOC730098 (11760151_x_at) / Fold change /veh LOC730098 (11760151_x_at) / RFU OR4N2 (11742367_at) / Fold change /veh OR4N2 (11742367_at) / RFU PRRT2 (11749266_a_at) / Fold change /veh PRRT2 (11749266_a_at) / RFU SNX32 (11753110_a_at) / Fold change /veh SNX32 (11753110_a_at) / RFU CDHR5 (11726645_a_at) / Fold change /veh CDHR5 (11726645_a_at) / RFU RCAN1 (11760418_a_at) / Fold change /veh RCAN1 (11760418_a_at) / RFU FAM167A (11723789_a_at) / Fold change /veh FAM167A (11723789_a_at) / RFU FAM26E (11764081_at) / Fold change /veh FAM26E (11764081_at) / RFU ISYNA1 (11749810_s_at) / Fold change /veh ISYNA1 (11749810_s_at) / RFU ACY1 (11761880_at) / Fold change /veh ACY1 (11761880_at) / RFU 11764098_at / Fold change /veh 11764098_at / RFU SAMD14 (11745864_x_at) / Fold change /veh SAMD14 (11745864_x_at) / RFU NPB (11741838_a_at) / Fold change /veh NPB (11741838_a_at) / RFU TMPRSS6 (11731388_a_at) / Fold change /veh TMPRSS6 (11731388_a_at) / RFU KRTAP10-2 (11738614_at) / Fold change /veh KRTAP10-2 (11738614_at) / RFU ARHGAP8 /// PRR5-ARHGAP8 (11727945_x_at) / Fold change /veh ARHGAP8 /// PRR5-ARHGAP8 (11727945_x_at) / RFU KRTAP5-7 /// NADSYN1 (11734609_at) / Fold change /veh KRTAP5-7 /// NADSYN1 (11734609_at) / RFU RASL12 (11751679_a_at) / Fold change /veh RASL12 (11751679_a_at) / RFU CDKN2B (11736163_a_at) / Fold change /veh CDKN2B (11736163_a_at) / RFU PRF1 (11729649_at) / Fold change /veh PRF1 (11729649_at) / RFU, ZNF638 /// ZNF638-IT1 / Fold change vs veh, ZNF638 /// ZNF638-IT1 / RFU, PANK3 / Fold change vs veh, PANK3 / RFU, SH3YL1 / Fold change vs veh, SH3YL1 / RFU, ZEB2 / Fold change vs veh, ZEB2 / RFU, NRIP1 / Fold change vs veh, NRIP1 / RFU, PTTG1IP / Fold change vs veh, PTTG1IP / RFU, CAPN2 / Fold change vs veh, CAPN2 / RFU, MED14 / Fold change vs veh, MED14 / RFU, SNORA58 / Fold change vs veh, SNORA58 / RFU, C1orf63 / Fold change vs veh, C1orf63 / RFU, LRRFIP1 / Fold change vs veh, LRRFIP1 / RFU, NDUFAF7 / Fold change vs veh, NDUFAF7 / RFU, SLC12A2 / Fold change vs veh, SLC12A2 / RFU, IBTK / Fold change vs veh, IBTK / RFU, ESF1 / Fold change vs veh, ESF1 / Fold change vs veh, TMEM50B / RFU, TAOK1 / Fold change vs veh, TAOK1 / RFU, ACBD3 / Fold change vs veh, ACBD3 / RFU, TMA16 / Fold change vs veh, TMA16 / RFU, RWDD3 / Fold change vs veh, RWDD3 / RFU, BCAT1 / Fold change vs veh, BCAT1 / RFU, EDEM3 / Fold change vs veh, EDEM3 / RFU, TMEM33 / Fold change vs veh, TMEM33 / RFU, WDR75 / Fold change vs veh, WDR75 / RFU, AHCTF1 / Fold change vs veh, AHCTF1 / RFU, TFRC / Fold change vs veh, TFRC / RFU, ZDHHC17 / Fold change vs veh, ZDHHC17 / RFU, NOM1 / Fold change vs veh, NOM1 / RFU, ARL8B / Fold change vs veh, ARL8B / RFU, ZBTB11 / Fold change vs veh, ZBTB11 / RFU, TAMM41 / Fold change vs veh, TAMM41 / RFU, KIAA1704 /// LOC100996395 / Fold change vs veh, KIAA1704 /// LOC100996395 / RFU, ING1 / Fold change vs veh, ING1 / RFU, TRMT61B / Fold change vs veh, TRMT61B / RFU, FUBP3 / Fold change vs veh, FUBP3 / RFU, TP53 / Fold change vs veh, TP53 / RFU, TNKS2 / Fold change vs veh, TNKS2 / RFU, ZFP14 / Fold change vs veh, ZFP14 / RFU, ACTR2 / Fold change vs veh, ACTR2 / RFU, PPP3R1 / Fold change vs veh, PPP3R1 / RFU, PIK3R1 / Fold change vs veh, PIK3R1 / RFU, HNRNPA1 / Fold change vs veh, HNRNPA1 / RFU, RNF170 / Fold change vs veh, RNF170 / RFU, ZNF28 / Fold change vs veh, ZNF28 / RFU, RNGTT / Fold change vs veh, RNGTT / RFU, OGT / Fold change vs veh, OGT / RFU, BRD1 / Fold change vs veh, BRD1 / RFU, MARS / Fold change vs veh, MARS / RFU, ZNF655 / Fold change vs veh, ZNF655 / RFU, FAHD1 / Fold change vs veh, FAHD1 / RFU, BDP1 / Fold change vs veh, BDP1 / RFU, LRRCC1 / Fold change vs veh, LRRCC1 / RFU, ARID1A / Fold change vs veh, ARID1A / RFU, ZNF146 / Fold change vs veh, ZNF146 / RFU, ZNF330 / Fold change vs veh, ZNF330 / RFU, GPN3 / Fold change vs veh, GPN3 / RFU, C9orf123 / Fold change vs veh, C9orf123 / RFU, N4BP2L2 / Fold change vs veh, N4BP2L2 / RFU, ARFIP1 / Fold change vs veh, ARFIP1 / RFU, FAM179B / Fold change vs veh, FAM179B / RFU, BCL10 / Fold change vs veh, BCL10 / RFU, UHRF1BP1L / Fold change vs veh, UHRF1BP1L / RFU, BET1 / Fold change vs veh, BET1 / RFU, CNOT2 / Fold change vs veh, CNOT2 / RFU, ZNF268 / Fold change vs veh, ZNF268 / Fold change vs veh, ZNF507 / RFU, DGCR2 / Fold change vs veh, DGCR2 / RFU, WDSUB1 / Fold change vs veh, WDSUB1 / Fold change vs veh, HSP90B1 /// MIR3652 / RFU, ADSS / Fold change vs veh, ADSS / RFU, GK / Fold change vs veh, GK / RFU, ZNF148 / Fold change vs veh, ZNF148 / RFU, TAF9 / Fold change vs veh, TAF9 / RFU, SLC1A5 / Fold change vs veh, SLC1A5 / RFU, SLMO2 / Fold change vs veh, SLMO2 / RFU, ABCC4 / Fold change vs veh, ABCC4 / RFU, LOC101060439 /// RAP1B / Fold change vs veh, LOC101060439 /// RAP1B / RFU, RFX7 / Fold change vs veh, RFX7 / RFU, GTPBP10 / Fold change vs veh, GTPBP10 / RFU, CNEP1R1 / Fold change vs veh, CNEP1R1 / RFU, BIVM-ERCC5 /// ERCC5 / Fold change vs veh, BIVM-ERCC5 /// ERCC5 / RFU, ILF3 / Fold change vs veh, ILF3 / RFU 11762660_at / Fold change /veh 11762660_at / RFU VCAN (11757783_s_at) / Fold change /veh VCAN (11757783_s_at) / RFU DDX43 (11728927_at) / Fold change /veh DDX43 (11728927_at) / RFU KRT8 (11758188_x_at) / Fold change /veh KRT8 (11758188_x_at) / RFU NKD1 (11759106_at) / Fold change /veh NKD1 (11759106_at) / RFU SRD5A1 (11742802_a_at) / Fold change /veh SRD5A1 (11742802_a_at) / RFU TPSAB1 /// TPSB2 (11721975_s_at) / Fold change /veh TPSAB1 /// TPSB2 (11721975_s_at) / RFU GSTM3 (11746129_a_at) / Fold change /veh GSTM3 (11746129_a_at) / RFU IL23R (11737362_x_at) / Fold change /veh IL23R (11737362_x_at) / RFU TMEM51 (11727254_a_at) / Fold change /veh TMEM51 (11727254_a_at) / RFU PIWIL2 (11732686_x_at) / Fold change /veh PIWIL2 (11732686_x_at) / RFU ORM1 (11744905_x_at) / Fold change /veh ORM1 (11744905_x_at) / RFU CCDC152 (11743942_at) / Fold change /veh CCDC152 (11743942_at) / RFU ECM1 (11717891_a_at) / Fold change /veh ECM1 (11717891_a_at) / RFU IL23R (11748794_a_at) / Fold change /veh IL23R (11748794_a_at) / RFU TNFAIP8L3 (11732012_x_at) / Fold change /veh TNFAIP8L3 (11732012_x_at) / RFU MBOAT4 (11741988_at) / Fold change /veh MBOAT4 (11741988_at) / RFU 11764193_at / Fold change /veh 11764193_at / RFU TMEM53 (11763286_at) / Fold change /veh TMEM53 (11763286_at) / RFU MAGEB2 (11727129_at) / Fold change /veh MAGEB2 (11727129_at) / RFU TMEM200A (11744735_a_at) / Fold change /veh TMEM200A (11744735_a_at) / RFU CCDC152 (11751479_a_at) / Fold change /veh CCDC152 (11751479_a_at) / RFU FAM211A (11726209_a_at) / Fold change /veh FAM211A (11726209_a_at) / RFU RGS16 (11746705_a_at) / Fold change /veh RGS16 (11746705_a_at) / RFU VCAN (11755009_s_at) / Fold change /veh VCAN (11755009_s_at) / RFU RHOB (11743442_s_at) / Fold change /veh RHOB (11743442_s_at) / RFU RGS16 (11720943_a_at) / Fold change /veh RGS16 (11720943_a_at) / RFU RGS16 (11720944_at) / Fold change /veh RGS16 (11720944_at) / RFU, VPS4B / Fold change vs veh, VPS4B / RFU, CREB1 / Fold change vs veh, CREB1 / RFU, DNAJC13 / Fold change vs veh, DNAJC13 / RFU, GNAQ / Fold change vs veh, GNAQ / RFU, CDK5R1 / Fold change vs veh, CDK5R1 / RFU, ZRANB3 / Fold change vs veh, ZRANB3 / RFU, CUL4A / Fold change vs veh, CUL4A / RFU, CCNY / Fold change vs veh, CCNY / RFU, UFL1 / Fold change vs veh, UFL1 / RFU, COG3 / Fold change vs veh, COG3 / RFU, DIAPH2 / Fold change vs veh, DIAPH2 / RFU, SKA2 / Fold change vs veh, SKA2 / RFU, AFF3 / Fold change vs veh, AFF3 / RFU, LMF1 / Fold change vs veh, LMF1 / RFU, IPO11 / Fold change vs veh, IPO11 / RFU, DFFB / Fold change vs veh, DFFB / RFU, FOXP1 / Fold change vs veh, FOXP1 / RFU, CARD8 / Fold change vs veh, CARD8 / RFU, STRN3 / Fold change vs veh, STRN3 / RFU, ADK / Fold change vs veh, ADK / RFU, RASSF2 / Fold change vs veh, RASSF2 / RFU, WIPF1 / Fold change vs veh, WIPF1 / RFU, LARP1B / Fold change vs veh, LARP1B / RFU, RASA1 / Fold change vs veh, RASA1 / RFU, RB1 / Fold change vs veh, RB1 / RFU, PPFIA1 / Fold change vs veh, PPFIA1 / RFU, MAT2A / Fold change vs veh, MAT2A / RFU, CCT5 / Fold change vs veh, CCT5 / RFU, WDR92 / Fold change vs veh, WDR92 / RFU, CUX1 / Fold change vs veh, CUX1 / RFU, TTC7A / Fold change vs veh, TTC7A / RFU, TMEM135 / Fold change vs veh, TMEM135 / RFU, DEPTOR / Fold change vs veh, DEPTOR / RFU, CPM / Fold change vs veh, CPM / RFU, DNAJB6 / Fold change vs veh, DNAJB6 / RFU, CACNA2D3 / Fold change vs veh, CACNA2D3 / RFU, DTX4 / Fold change vs veh, DTX4 / RFU, TFCP2 / Fold change vs veh, TFCP2 / RFU, GMCL1 /// GMCL1P1 / Fold change vs veh, GMCL1 /// GMCL1P1 / RFU, AEBP2 / Fold change vs veh, AEBP2 / RFU, SNHG1 /// SNORD22 /// SNORD25 /// SNORD26 /// SNORD27 /// SNORD28 /// SNORD29 /// SNORD31 / Fold change vs veh, SNHG1 /// SNORD22 /// SNORD25 /// SNORD26 /// SNORD27 /// SNORD28 /// SNORD29 /// SNORD31 / Fold change (Aza/veh), C12orf56 (ProbeSet 11735607_a_at) / Fold change (ACY-1035/veh), C12orf56 (ProbeSet 11735607_a_at) / Fold change (Aza/veh), FGFR1OP (ProbeSet 11751329_s_at) / Fold change (ACY-1035/veh), FGFR1OP (ProbeSet 11751329_s_at) / Fold change (Aza/veh), VPS36 (ProbeSet 11739960_a_at) / Fold change (ACY-1035/veh), VPS36 (ProbeSet 11739960_a_at) / RFU SYPL1 (11715823_x_at) / Fold change /veh SYPL1 (11715823_x_at) / RFU IGFBP7 (11715501_s_at) / Fold change /veh IGFBP7 (11715501_s_at) / RFU REEP3 (11722064_at) / Fold change /veh REEP3 (11722064_at) / RFU IGLL1 (11728026_x_at) / Fold change /veh IGLL1 (11728026_x_at): dose or concentration left out as unconfirmed
Conditions: MV-4-11 cells, 48 hours

Nc1ncn([C@@H]2O[C@H](CO)[C@@H](O)[C@H]2O)c(=O)n1 [azacitidine]
Fold change /veh ZSCAN30 (11745921_a_at): 1.18
